Assay results published in ChEMBL document CHEMBL1201862, “PubChem BioAssay data set” (2004).
Activity calls are given as the source filed them.

Experiments:
[1] = antiviral protection against BTV-induced cell death – arbovirus, BSR cells, confirmation (AID 1250); assay type: functional;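 also: protection from viral cytopathic effect measured as cell viability by ATP luminescence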
[2] = biological target: Luciferin 4-monooxygenase (Photinus pyralis, UniProt P08659); test: Counter Screen for Luciferase-based Assay Positives. [Related pubchem assays: 620, 618, 411 ]
[3] = viability of uninfected HEp-2 cells – cell-based, HTS, cytotoxicity control for RSV inhibitor project, dose response (AID 2410); assay type: functional; conditions: human respiratory syncytial virus
HT-1080 = test: HT1080 cell viability loss – fluorescence readout (AID 620); assay type: functional, cell-based; conditions: Homo sapiens
Cytochrome P450 2C19 = Cytochrome P450 2C19 (Homo sapiens, UniProt P33261); test: Cytochrome panel assay with activity outcomes. Panel member name: p450-cyp2c19 Compounds with AC50 equal or less than 10 uM are considered active; assay type: functional; conditions: read-out: AC50
Cytochrome P450 2C9 = Cytochrome P450 2C9 (Homo sapiens, UniProt P11712)
cells [4] = assay type: functional
[5] = A cytotoxicity screen of small molecule inhibitors of the PhoP region in Salmonella typhi identified in the primary screen. [Related pubchem assays: 1850, 1864, 1985 ]; assay type: functional
cells [6] = test: cells
Estrogen receptor = biological target: T1, Estrogen receptor (Homo sapiens, UniProt P03372); test: ERα coactivator recruitment enhancers – biochemical, TR-FRET, ERα LBD, dose response (AID 737)
T1 sequence (P03372 whole entry): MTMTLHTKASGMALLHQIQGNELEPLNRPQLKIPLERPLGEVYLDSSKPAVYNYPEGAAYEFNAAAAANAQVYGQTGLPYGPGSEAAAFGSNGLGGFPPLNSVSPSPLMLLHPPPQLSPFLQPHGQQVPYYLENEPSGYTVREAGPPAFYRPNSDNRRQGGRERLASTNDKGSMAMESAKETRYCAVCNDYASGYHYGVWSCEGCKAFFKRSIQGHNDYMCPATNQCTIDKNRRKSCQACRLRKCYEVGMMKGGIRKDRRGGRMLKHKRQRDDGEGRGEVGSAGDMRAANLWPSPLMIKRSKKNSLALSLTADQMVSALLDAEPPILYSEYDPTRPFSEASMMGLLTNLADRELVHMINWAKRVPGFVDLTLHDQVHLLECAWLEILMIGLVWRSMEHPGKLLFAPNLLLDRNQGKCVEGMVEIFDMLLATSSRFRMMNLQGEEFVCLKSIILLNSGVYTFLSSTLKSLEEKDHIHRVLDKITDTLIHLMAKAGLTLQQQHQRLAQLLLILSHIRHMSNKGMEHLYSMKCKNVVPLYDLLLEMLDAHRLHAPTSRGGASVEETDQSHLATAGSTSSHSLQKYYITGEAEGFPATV

[7] = biological target: T2, Short transient receptor potential channel 4 (Mus musculus, UniProt Q9QUQ5); test: calcium entry via TRPC4 opening agents – cell-based, HEK293 TRPC4/mu-opioid, Fluo-4 calcium, dose response (AID 434937); assay type: functional
T2 sequence (Q9QUQ5 whole entry): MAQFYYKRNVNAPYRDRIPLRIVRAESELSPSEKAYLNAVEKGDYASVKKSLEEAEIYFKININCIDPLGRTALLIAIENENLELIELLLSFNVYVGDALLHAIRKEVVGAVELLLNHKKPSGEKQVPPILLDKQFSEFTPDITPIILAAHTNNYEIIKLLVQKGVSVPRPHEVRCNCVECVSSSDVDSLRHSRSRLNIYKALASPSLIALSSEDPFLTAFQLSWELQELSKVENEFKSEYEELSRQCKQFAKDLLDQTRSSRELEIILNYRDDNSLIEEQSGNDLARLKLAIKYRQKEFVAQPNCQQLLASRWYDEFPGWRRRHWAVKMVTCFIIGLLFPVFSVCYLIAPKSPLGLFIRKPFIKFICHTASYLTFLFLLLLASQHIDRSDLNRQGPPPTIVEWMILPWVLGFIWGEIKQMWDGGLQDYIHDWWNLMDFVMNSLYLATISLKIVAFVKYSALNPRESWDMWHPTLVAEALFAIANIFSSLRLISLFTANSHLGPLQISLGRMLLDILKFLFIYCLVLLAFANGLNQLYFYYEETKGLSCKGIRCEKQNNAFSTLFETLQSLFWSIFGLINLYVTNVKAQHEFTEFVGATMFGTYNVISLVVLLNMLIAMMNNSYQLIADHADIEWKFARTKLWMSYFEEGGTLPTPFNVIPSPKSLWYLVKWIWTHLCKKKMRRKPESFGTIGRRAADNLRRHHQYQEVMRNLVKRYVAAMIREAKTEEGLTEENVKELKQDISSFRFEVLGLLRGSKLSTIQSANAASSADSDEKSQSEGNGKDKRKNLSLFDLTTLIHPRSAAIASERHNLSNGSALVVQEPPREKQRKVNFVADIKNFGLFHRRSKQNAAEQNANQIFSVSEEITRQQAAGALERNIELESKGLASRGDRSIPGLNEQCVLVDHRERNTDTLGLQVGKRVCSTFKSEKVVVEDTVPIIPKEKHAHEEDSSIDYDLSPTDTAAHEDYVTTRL

Sequence of Luciferin 4-monooxygenase (P08659 whole entry): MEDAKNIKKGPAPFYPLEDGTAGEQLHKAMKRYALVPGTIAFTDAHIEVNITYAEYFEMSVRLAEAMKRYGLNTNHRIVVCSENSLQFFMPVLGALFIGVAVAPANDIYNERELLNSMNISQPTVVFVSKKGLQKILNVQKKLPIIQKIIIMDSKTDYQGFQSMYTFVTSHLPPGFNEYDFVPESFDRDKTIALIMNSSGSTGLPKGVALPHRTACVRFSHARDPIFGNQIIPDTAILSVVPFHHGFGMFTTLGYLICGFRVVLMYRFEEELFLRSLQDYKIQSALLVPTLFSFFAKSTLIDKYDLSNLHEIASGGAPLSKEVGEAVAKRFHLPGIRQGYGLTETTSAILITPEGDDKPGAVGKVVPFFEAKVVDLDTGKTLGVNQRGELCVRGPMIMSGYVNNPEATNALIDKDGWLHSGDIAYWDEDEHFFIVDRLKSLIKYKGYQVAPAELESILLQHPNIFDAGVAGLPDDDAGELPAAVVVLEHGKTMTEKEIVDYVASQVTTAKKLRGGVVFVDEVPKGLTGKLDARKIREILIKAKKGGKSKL
Sequence of Cytochrome P450 2C9 (P11712 whole entry): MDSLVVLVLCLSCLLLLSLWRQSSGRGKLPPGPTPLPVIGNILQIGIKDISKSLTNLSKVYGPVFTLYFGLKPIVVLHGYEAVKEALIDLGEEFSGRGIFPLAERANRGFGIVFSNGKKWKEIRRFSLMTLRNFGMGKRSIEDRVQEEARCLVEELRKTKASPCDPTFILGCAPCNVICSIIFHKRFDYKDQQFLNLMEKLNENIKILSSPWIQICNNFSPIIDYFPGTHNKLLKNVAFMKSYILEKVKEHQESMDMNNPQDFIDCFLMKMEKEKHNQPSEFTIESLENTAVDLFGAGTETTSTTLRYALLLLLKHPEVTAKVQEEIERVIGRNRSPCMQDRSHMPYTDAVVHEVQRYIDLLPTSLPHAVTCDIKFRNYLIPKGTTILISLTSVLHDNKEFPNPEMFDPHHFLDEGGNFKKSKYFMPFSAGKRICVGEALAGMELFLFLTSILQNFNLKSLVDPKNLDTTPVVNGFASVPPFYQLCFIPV
Sequence of Cytochrome P450 2C19 (P33261 whole entry): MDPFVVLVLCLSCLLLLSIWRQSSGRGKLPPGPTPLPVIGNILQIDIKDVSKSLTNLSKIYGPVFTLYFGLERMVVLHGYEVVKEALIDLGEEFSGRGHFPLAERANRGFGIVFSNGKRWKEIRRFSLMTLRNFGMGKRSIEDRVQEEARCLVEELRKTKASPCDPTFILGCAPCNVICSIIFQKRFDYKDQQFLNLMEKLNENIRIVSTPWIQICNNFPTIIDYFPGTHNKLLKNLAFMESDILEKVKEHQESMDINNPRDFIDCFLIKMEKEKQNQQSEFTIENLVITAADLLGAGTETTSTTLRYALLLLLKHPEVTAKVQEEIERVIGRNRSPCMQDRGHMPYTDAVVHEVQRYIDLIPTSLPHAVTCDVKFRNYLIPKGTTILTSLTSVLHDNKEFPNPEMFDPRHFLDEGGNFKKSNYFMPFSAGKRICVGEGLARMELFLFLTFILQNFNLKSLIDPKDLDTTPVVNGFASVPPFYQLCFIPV

In the case of O=C(Nc1nc(-c2ccco2)cs1)c1ccccc1, the IC50 [1] was 30.7 µM (active).

For COc1cc(SC)ccc1C(=O)Nc1ccc2c(c1)OCCO2, the EC50 [2] was 75.4 µM (active), the CC50 [3] was 19.9 µM (active) and the EC50 (HT-1080) was > 50 µM (not active).

For CC(=O)/C=C1\Nc2ccccc2OC1=O, the AC50 (Cytochrome P450 2C19) was 7.94 µM (inconclusive), the AC50 (Cytochrome P450 2C9) was 2.24 µM (inconclusive) and the IC50 (cells [4]) was 5.75 µM (active). For the same molecule, the EC50 [5] was > 50 µM (active).

With CCOc1ccc(CNC(=O)c2cc3oc4ccccc4c3n2C)cc1 the CC50 [3] was 39 µM (active) and the IC50 (cells [6]) was 4.82 µM (active).

In the case of COCCn1c(C)cc(C2=NN=C(Nc3ccccc3)SC2)c1C, the EC50 [2] was 2.49 µM (active) and the EC50 (HT-1080) was > 50 µM (not active).

With COc1cc(NC(=O)c2cccs2)c(C(=O)OCC(=O)NC(=O)NCc2ccccc2)cc1OC the EC50 (Estrogen receptor) was 1.58 µM (active).

For CN(CCOc1ccc(Cl)cc1)CC(O)c1ccccc1 (stereo not given), the EC50 [7] was 1.88 µM (active) and the EC50 [5] was > 50 µM (active).
